Source: ChEMBL document CHEMBL4765380, “Synthesis, structure and anticancer activity of new geldanamycin amine analogs containing C(17)- or C(20)- flexible and rigid arms as well as closed or open ansa-bridges” (Eur J Med Chem, 2020)

Assays:
[1] = Selectivity index, ratio of IC50 for cytotoxicity against human HDF cells to IC50 for cytotoxicity against human PC-3 cells; assay type: toxicity, cell-based; conditions: HDF cells versus PC-3 cells, read-out: Ratio IC50
[2] = Selectivity index, ratio of IC50 for cytotoxicity against human HDF cells to IC50 for cytotoxicity against human U-87 MG cells; assay type: toxicity, cell-based; conditions: HDF cells versus U-87 MG cells, read-out: Ratio IC50
[3] = Selectivity index, ratio of IC50 for cytotoxicity against human HDF cells to IC50 for cytotoxicity against human SK-BR-3 cells; assay type: toxicity, cell-based; conditions: HDF cells versus SK-BR-3 cells, read-out: Ratio IC50
[4] = Cytotoxicity against human HDF cells assessed as reduction in cell growth incubated for 72 hrs by SRB assay; assay type: cell-based; conditions: HDFa
[5] = Selectivity index, ratio of IC50 for cytotoxicity against human HDF cells to IC50 for cytotoxicity against human A549 cells; assay type: toxicity, cell-based; conditions: HDF cells versus A549 cells, read-out: Ratio IC50
[6] = Selectivity index, ratio of IC50 for cytotoxicity against human HDF cells to IC50 for cytotoxicity against human SK-OV-3 cells
[7] = test system: A549; assay: Antiproliferative activity against human A549 cells assessed as reduction in cell growth incubated for 72 hrs by SRB assay; assay type: functional, cell-based; conditions: A549, 72 h
[8] = test system: PC-3; assay: Antiproliferative activity against human PC-3 cells assessed as reduction in cell growth incubated for 72 hrs by SRB assay; assay type: functional, cell-based; conditions: PC-3, 72 h
[9] = test system: SK-BR-3; assay: Antiproliferative activity against human SK-BR-3 cells assessed as reduction in cell growth incubated for 72 hrs by SRB assay; assay type: functional, cell-based; conditions: SK-BR-3, 72 h
[10] = test system: SK-OV-3; assay: Antiproliferative activity against human SK-OV-3 cells assessed as reduction in cell growth incubated for 72 hrs by SRB assay; assay type: functional, cell-based; conditions: SK-OV-3, 72 h
[11] = test system: U-87 MG; assay: Antiproliferative activity against human U-87 MG cells assessed as reduction in cell growth incubated for 72 hrs by SRB assay; assay type: functional, cell-based, U-87MG ATCC
[12] = Binding affinity to HSP90 (unknown origin) assessed as dissociation constant by isothermal titration calorimetry; parameters: species or system Homo sapiens

SMILES	IC50 [7]	IC50 [8]	IC50 [9]	IC50 [10]	IC50 [11]	Kd [12]	selectivity ratio [1]	selectivity ratio [2]	selectivity ratio [3]	IC50 [4]	selectivity ratio [5]	Ratio IC50 [6]
CO[C@H]1/C=C\C=C(/C)C(=O)NC2=CC(=O)C(NCCCN3CCCC3)=C(C[C@@H](C)C[C@H](OC)[C@H](O)[C@@H](C)/C=C(\C)[C@@H]1OC(N)=O)C2=O	2610 nM	2730 nM	2060 nM	2820 nM	2040 nM	–	2.7	3.62	3.58	7380 nM	2.83	2.62
C#CCCN1CCC(NC2=C3C[C@@H](C)C[C@H](OC)[C@H](O)[C@@H](C)/C=C(\C)[C@H](OC(N)=O)[C@@H](OC)/C=C\C=C(/C)C(=O)NC(=CC2=O)C3=O)CC1	4370 nM	4090 nM	4710 nM	4730 nM	4860 nM	2960 nM	2.87	2.42	2.49	11700 nM	2.69	2.48
CO[C@H]1/C=C\C=C(/C)C(=O)NC2=CC(=O)C(NC3CCN(Cc4ccccc4)CC3)=C(C[C@@H](C)C[C@H](OC)[C@H](O)[C@@H](C)/C=C(\C)[C@@H]1OC(N)=O)C2=O	1680 nM	1010 nM	1770 nM	1850 nM	1100 nM	–	4.83	4.14	2.76	4880 nM	2.9	2.64
CO[C@@H](/C=C/C=C(/C)C(N)=O)[C@@H](OC(N)=O)/C(C)=C/[C@H](C)[C@@H](O)[C@H](C[C@H](C)CC1=C(NCCCCO)C(=O)C=C(NCCCCO)C1=O)OC	4110 nM	4530 nM	4210 nM	4270 nM	4070 nM	–	1.4	1.56	1.51	6360 nM	1.55	1.49
CO[C@H]1/C=C\C=C(/C)C(=O)NC2=CC(=O)C(NNC3=NCCN3)=C(C[C@@H](C)C[C@H](OC)[C@H](O)[C@@H](C)/C=C(\C)[C@@H]1OC(N)=O)C2=O	2710 nM	3110 nM	2090 nM	2470 nM	2090 nM	–	1.26	1.88	1.88	3920 nM	1.45	1.59
CO[C@H]1/C=C\C=C(/C)C(=O)NC2=CC(=O)C(NC3CCC(O)CC3)=C(C[C@@H](C)C[C@H](OC)[C@H](O)[C@@H](C)/C=C(\C)[C@@H]1OC(N)=O)C2=O (stereo not given in full)	3310 nM	3290 nM	3830 nM	3160 nM	3710 nM	–	2.49	2.21	2.14	8190 nM	2.47	2.59
CCOC(=O)[C@@H](N)CCCCNC1=C2C[C@@H](C)C[C@H](OC)[C@H](O)[C@@H](C)/C=C(\C)[C@H](OC(N)=O)[C@@H](OC)/C=C\C=C(/C)C(=O)NC(=CC1=O)C2=O	1390 nM	1260 nM	1370 nM	1090 nM	1050 nM	–	2.53	3.04	2.33	3190 nM	2.29	2.93
CO[C@@H](/C=C/C=C(/C)C(N)=O)[C@@H](OC(N)=O)/C(C)=C/[C@H](C)[C@@H](O)[C@H](C[C@H](C)CC1=C(NCCCN2CCCC2)C(=O)C=C(NCCCN2CCCC2)C1=O)OC	8110 nM	9070 nM	8260 nM	9410 nM	8490 nM	–	2.27	2.43	2.49	20600 nM	2.54	2.19
CO[C@@H](C=CC=C(C)C(N)=O)[C@@H](OC(N)=O)/C(C)=C/[C@H](C)[C@@H](O)[C@H](C[C@H](C)CC1=C(NCCCCCCO)C(=O)C=C(NCCCCCCO)C1=O)OC	11000 nM	11700 nM	–	11900 nM	11400 nM	183000 nM	1.48	1.52	–	–	1.57	1.47
CCCCOCCOCCNC1=C2C[C@@H](C)C[C@H](OC)[C@H](O)[C@@H](C)/C=C(\C)[C@H](OC(N)=O)[C@@H](OC)/C=C\C=C(/C)C(=O)NC(=CC1=O)C2=O	1190 nM	1480 nM	1020 nM	1660 nM	1220 nM	–	1.78	2.16	2.59	2640 nM	2.22	1.59
CO[C@H]1/C=C\C=C(/C)C(=O)NC2=CC(=O)C(NCc3cccc(N4CCOC4=O)c3)=C(C[C@@H](C)C[C@H](OC)[C@H](O)[C@@H](C)/C=C(\C)[C@@H]1OC(N)=O)C2=O	3730 nM	3210 nM	3390 nM	3030 nM	3180 nM	–	3.51	3.55	3.13	11300 nM	3.02	3.72
CO[C@H]1/C=C\C=C(/C)C(=O)NC2=CC(=O)C(NCCN3CCCC3=O)=C(C[C@@H](C)C[C@H](OC)[C@H](O)[C@@H](C)/C=C(\C)[C@@H]1OC(N)=O)C2=O	1600 nM	1830 nM	2050 nM	1540 nM	1770 nM	–	1.57	1.63	1.4	2880 nM	1.8	1.87

Continued, in another order:

IC50 [7]	IC50 [8]	IC50 [9]	IC50 [10]	IC50 [11]	Kd [12]	SMILES	selectivity ratio [1]	selectivity ratio [2]	selectivity ratio [3]	IC50 [4]	selectivity ratio [5]	Ratio IC50 [6]
2970 nM	2750 nM	2480 nM	2050 nM	2390 nM	–	CO[C@H]1/C=C\C=C(/C)C(=O)NC2=CC(=O)C(NCc3cccc(CS(=O)(=O)N(C(C)C)C(C)C)c3)=C(C[C@@H](C)C[C@H](OC)[C@H](O)[C@@H](C)/C=C(\C)[C@@H]1OC(N)=O)C2=O	1.95	2.25	2.17	5370 nM	1.81	2.62
11400 nM	13000 nM	12000 nM	12400 nM	12600 nM	–	CO[C@@H](C=CC=C(C)C(N)=O)[C@@H](OC(N)=O)/C(C)=C/[C@H](C)[C@@H](O)[C@H](C[C@H](C)CC1=C(NCCOCCO)C(=O)C=C(NCCOCCO)C1=O)OC	2.41	2.49	2.62	31300 nM	2.73	2.53
1090 nM	600 nM	710 nM	660 nM	840 nM	1190 nM	CO[C@H]1/C=C\C=C(/C)C(=O)NC2=CC(=O)C(NCC3COCCOCCOCCOCCOCCO3)=C(C[C@@H](C)C[C@H](OC)[C@H](O)[C@@H](C)/C=C(\C)[C@@H]1OC(N)=O)C2=O (stereo not given in full)	6.78	4.85	5.73	4070 nM	3.73	6.17
2910 nM	2360 nM	2610 nM	2790 nM	2810 nM	940 nM	CO[C@H]1/C=C\C=C(/C)C(=O)NC2=CC(=O)C(NCC3CCC(C(=O)O)CC3)=C(C[C@@H](C)C[C@H](OC)[C@H](O)[C@@H](C)/C=C(\C)[C@@H]1OC(N)=O)C2=O (stereo not given in full)	3.12	2.52	2.82	7370 nM	2.53	2.64
1130 nM	1520 nM	1840 nM	1350 nM	1040 nM	–	CO[C@H]1/C=C\C=C(/C)C(=O)NC2=CC(=O)C(NCc3ccccc3F)=C(C[C@@H](C)C[C@H](OC)[C@H](O)[C@@H](C)/C=C(\C)[C@@H]1OC(N)=O)C2=O	1.77	2.59	1.46	2690 nM	2.38	1.99
2930 nM	2010 nM	2190 nM	2490 nM	2330 nM	–	CO[C@H]1/C=C\C=C(/C)C(=O)NC2=CC(=O)C(NC3CCN(S(C)(=O)=O)CC3)=C(C[C@@H](C)C[C@H](OC)[C@H](O)[C@@H](C)/C=C(\C)[C@@H]1OC(N)=O)C2=O	3.19	2.76	2.93	6420 nM	2.19	2.58
830 nM	810 nM	870 nM	990 nM	850 nM	–	Nc1ccn([C@@H]2O[C@H](CO)[C@@H](O)[C@@H]2O)c(=O)n1 [CYTARABINE]	7.33	6.99	6.83	5940 nM	7.16	6
